# Test results: patent publication US20240327408A1, “COMPOUNDS CONTAINING TETRAHYDRONAPHTHYRIDINONE OR TETRAHYDROPYRIDOPYRIMIDINONE SKELETON, PREPARATION METHOD THEREFOR AND PHARMACEUTICAL USE THEREOF” (CHINA PHARMACEUTICAL UNIVERSITY, priority 2021, published 2024)
# How the values were obtained:
# hClpP = molecular target: T1, hClpP (Homo sapiens, UniProt Q16740); test: activating ClpP hydrolysis of FITC-casein (fluorescence kinetic detection); assay type: biochemical; conditions: hClpP 1 μM, FITC-Casein 4 μM, 37° C.
# T1 construct: made in house
# T1 sequence (Q16740 57-277): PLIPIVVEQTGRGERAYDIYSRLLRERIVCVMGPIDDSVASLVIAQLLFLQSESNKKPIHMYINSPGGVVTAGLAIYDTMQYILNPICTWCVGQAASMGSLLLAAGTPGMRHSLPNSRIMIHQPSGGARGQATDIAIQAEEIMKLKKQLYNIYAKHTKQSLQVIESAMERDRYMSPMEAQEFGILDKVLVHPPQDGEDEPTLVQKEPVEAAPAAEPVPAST
# Protocol: The specific procedures were as follows:
# Test compounds were each prepared into a 100 mM stock solution in DMSO and stored. and 1 μL of stock solution of each of the compounds was taken and diluted to 10 mM by adding 9 μL of DMSO for later use.
# The compounds of formula I of the present invention were each diluted at concentrations of 200 μM, 50 μM, 10 μM, 2 μM, 500 nM, 100 nM, 20 nM, and 2 nM in an assay buffer. 50 μL of each of the compounds at different concentrations was added to each well, with 2 replicate wells.
# The protein was diluted to 4 μM in an assay buffer. 25 μL of protein was added to each well, and incubated at 37° C. for 30 min. The final concentration was 1 μM.
# 25 μL of FITC-Casein was added to each well. The final concentration was 4 μM. The mixture was immediately loaded on the machine for detection.
# FITC-Casein and FITC-Casein+ClpP were used as negative controls.
# The detection temperature was 37° C. The plate was shaken for 3 s. […] Kinetic parameters were set, and scanning was performed once every 1 min for 15 min.
# MV4; 11 cells = test: inhibiting the growth of MV4; 11 cells; assay type: cell-based; conditions: Homo sapiens
compound,measurement,setting,value
"O=c1c2c(c3cccnc3n1Cc1ccc(Br)cc1)CCN(Cc1cccc(Cl)c1)C2 [Compound I-78, 3-(3-chlorobenzyl)-6-(4-bromobenzyl)-2,3,4,6-tetrahydropyrido[3,4-c][1,8]naphthyridine-5-(1H)-one]",EC50,hClpP,< 1000 nM
same,IC50,MV4; 11 cells,< 1000 nM
"Cc1cccc(CN2CCc3c(c(=O)n(Cc4ccc(Cl)cc4)c4nccn34)C2)c1 [Compound I-120, 7-(3-methylbenzyl)-4-(4-chlorobenzyl)-6,7,8,9-tetrahydroimidazo[1,2-a]pyrido[3,4-e]pyrimidine-5(4H)-one]",EC50,hClpP,< 1000 nM
same,IC50,MV4; 11 cells,< 1000 nM
"O=c1c2c(c3cscc3n1Cc1ccc(C(F)(F)F)cc1)CCN(Cc1ccccc1)C2 [Compound I-102, 7-benzyl-4-(4-trifluoromethylbenzyl)-6,7,8,9-tetrahydrothieno[3,4-C][2,7]naphthyridine-5(4H)-one]",EC50,hClpP,< 1000 nM
same,IC50,MV4; 11 cells,< 1000 nM
"N#Cc1cccc(CN2CCc3c(c(=O)n(Cc4ccc([N+](=O)[O-])cc4)c4ncccc34)C2)c1 [Compound I-88, 6-(4-nitrobenzyl)-3-(3-cyanobenzyl)-2,3,4,6-tetrahydropyrido[3,4-c][1,8]naphthyridine-5-(1H)-one]",EC50,hClpP,1000 to 10000 nM
same,IC50,MV4; 11 cells,1000 to 10000 nM
"Cc1ccc(Cn2c(=O)c3c(n4ccnc24)CCN(Cc2cccc(C)c2)C3)cc1 [Compound I-135, 7-(3-methylbenzyl)-4-(4-methylbenzyl)-6,7,8,9-tetrahydroimidazo[1,2-a]pyrido[3,4-e]pyrimidine-5(4H)-one]",EC50,hClpP,< 1000 nM
same,IC50,MV4; 11 cells,< 1000 nM
"CCc1ccc(Cn2c(=O)c3c(n4ccnc24)CCN(Cc2cccc(Cl)c2)C3)cc1 [Compound I-139, 7-(3-chlorobenzyl)-4-(4-ethylbenzyl)-6,7,8,9-tetrahydroimidazo[1,2-a]pyrido[3,4-e]pyrimidine-5(4H)-one]",EC50,hClpP,< 1000 nM
same,IC50,MV4; 11 cells,< 1000 nM
"COc1ccc(Cn2c(=O)c3c(n4ccnc24)CCN(Cc2cccc(F)c2)C3)cc1 [Compound I-143, 7-(3-fluorobenzyl)-4-(4-methoxybenzyl)-6,7,8,9-tetrahydroimidazo[1,2-a]pyrido[3,4-e]pyrimidine-5(4H)-one]",EC50,hClpP,< 1000 nM
same,IC50,MV4; 11 cells,< 1000 nM
"O=c1c2c(n3ccnc3n1Cc1ccc(F)cc1F)CCN(Cc1cccc(Cl)c1)C2 [Compound I-124, 7-(3-chlorobenzyl)-4-(2,4-difluorobenzyl)-6,7,8,9-tetrahydroimidazo[1,2-a]pyrido[3,4-e]pyrimidine-5(4H)-one]",EC50,hClpP,< 1000 nM
same,IC50,MV4; 11 cells,< 1000 nM
"O=c1c2c(c3cccnc3n1Cc1ccccc1)CCN(Cc1ccccc1Cl)C2 [Compound I-7, 6-benzyl-3-(2-chlorobenzyl)-2,3,4,6-tetrahydropyrido[3,4-c][1,8]naphthyridine-5-(1H)-one]",EC50,hClpP,1000 to 10000 nM
same,IC50,MV4; 11 cells,< 1000 nM
"N#Cc1cccc(CN2CCc3c(c(=O)n(Cc4ccc(C(F)(F)F)cc4)c4cncn34)C2)c1 [Compound I-165, 7-(3-cyanobenzyl)-4-(4-trifluoromethylbenzyl)-6,7,8,9-tetrahydroimidazo[1,5-a]pyrido[3,4-e]pyrimidine-5(4H)-one]",EC50,hClpP,1000 to 10000 nM
same,IC50,MV4; 11 cells,1000 to 10000 nM
"O=c1c2c(c3cccnc3n1Cc1ccccc1)CCN(Cc1ccc(Cl)cc1)C2 [Compound I-19, 6-benzyl-3-(4-chlorobenzyl)-2,3,4,6-tetrahydropyrido[3,4-c][1,8]naphthyridine-5-(1H)-one]",EC50,hClpP,1000 to 10000 nM
same,IC50,MV4; 11 cells,< 1000 nM
"O=c1c2c(c3cccnc3n1Cc1ccccc1)CCN(Cc1ccccc1F)C2 [Compound I-6, 6-benzyl-3-(2-fluorobenzyl)-2,3,4,6-tetrahydropyrido[3,4-c][1,8]naphthyridine-5-(1H)-one]",EC50,hClpP,1000 to 10000 nM
same,IC50,MV4; 11 cells,< 1000 nM
"Cn1nccc1CN1CCc2c(c(=O)n(Cc3ccccc3)c3ncccc23)C1 [Compound I-25, 6-benzyl-3-((1-methyl-1H-pyrazol-5-yl)methyl)-2,3,4,6-tetrahydropyrido[3,4-c][1,8]naphthyridine-5-(1H)-one]",EC50,hClpP,10000 to 100000 nM
same,IC50,MV4; 11 cells,1000 to 10000 nM
"O=c1c2c(n3cncc3n1Cc1ccc(Cl)cc1)CCN(Cc1cccc(Cl)c1)C2 [Compound I-166, 7-(3-chlorobenzyl)-4-(4-chlorobenzyl)-6,7,8,9-tetrahydroimidazo[1,5-a]pyrido[3,4-e]pyrimidine-5(4H)-one]",EC50,hClpP,1000 to 10000 nM
same,IC50,MV4; 11 cells,1000 to 10000 nM
"O=c1c2c(n3ccnc3n1Cc1ccc(F)cc1)CCN(Cc1ccccc1)C2 [Compound I-112, 7-benzyl-4-(4-fluorobenzyl)-6,7,8,9-tetrahydroimidazo[1,2-a]pyrido[3,4-e]pyrimidine-5(4H)-one]",EC50,hClpP,< 1000 nM
same,IC50,MV4; 11 cells,< 1000 nM
"O=c1c2c(c3cccnc3n1Cc1ccc(Cl)cc1)CCN(Cc1cccc(F)c1)C2 [Compound I-74, 3-(3-fluorobenzyl)-6-(4-chlorobenzyl)-2,3,4,6-tetrahydropyrido[3,4-c][1,8]naphthyridine-5-(1H)-one]",EC50,hClpP,< 1000 nM
same,IC50,MV4; 11 cells,< 1000 nM
"O=c1c2c(n3cccc3n1Cc1ccc(C(F)(F)F)cc1)CCN(Cc1ccccc1)C2 [Compound I-168, 3-benzyl-6-(4-trifluoromethylbenzyl)-1,2,3,4-tetrahydropyrido[3,4-e]pyrrolo[1,2-a]pyrimidine-5(6H)-one]",EC50,hClpP,< 1000 nM
same,IC50,MV4; 11 cells,< 1000 nM
"COc1ccc(Cn2c(=O)c3c(n4ccnc24)CCN(Cc2ccccc2)C3)cc1 [Compound I-142, 7-benzyl-4-(4-methoxybenzyl)-6,7,8,9-tetrahydroimidazo[1,2-a]pyrido[3,4-e]pyrimidine-5(4H)-one]",EC50,hClpP,< 1000 nM
same,IC50,MV4; 11 cells,< 1000 nM
"Cc1cccc(CN2CCc3c(c(=O)n(Cc4ccc(F)cc4F)c4nccn34)C2)c1 [Compound I-125, 7-(3-methylbenzyl)-4-(2,4-difluorobenzyl)-6,7,8,9-tetrahydroimidazo[1,2-a]pyrido[3,4-e]pyrimidine-5(4H)-one]",EC50,hClpP,< 1000 nM
same,IC50,MV4; 11 cells,< 1000 nM
"O=c1c2c(n3nccc3n1Cc1ccc(Cl)cc1)CCN(Cc1ccccc1)C2 [Compound I-161, 4-(4-chlorobenzyl)-7-benzyl-6,7,8,9-tetrahydropyrazolo[1,5-a]pyrido[3,4-e]pyrimidine-5(4H)-one]",EC50,hClpP,1000 to 10000 nM
same,IC50,MV4; 11 cells,1000 to 10000 nM
"O=c1c2c(n3ncnc3n1Cc1ccc(Cl)cc1)CCN(Cc1cccc(F)c1)C2 [Compound I-153, 4-(4-chlorobenzyl)-7-(3-fluorobenzyl)-6,7,8,9-tetrahydropyrido[3,4-e][1,2,4]triazolo[1,5-a]pyrimidine-5(4H)-one]",EC50,hClpP,1000 to 10000 nM
same,IC50,MV4; 11 cells,1000 to 10000 nM
"O=c1c2c(c3cocc3n1Cc1ccc(C(F)(F)F)cc1)CCN(Cc1ccccc1)C2 [Compound I-101, 7-benzyl-4-(4-trifluoromethylbenzyl)-6,7,8,9-tetrahydrofuro[3,4-C][2,7]naphthyridine-5(4H)-one]",EC50,hClpP,< 1000 nM
same,IC50,MV4; 11 cells,< 1000 nM
"O=c1c2c(n3ncnc3n1Cc1ccc(C(F)(F)F)cc1)CCN(Cc1ccccc1)C2 [Compound I-149, 4-(4-trifluoromethylbenzyl)-7-benzyl-6,7,8,9-tetrahydropyrido[3,4-e][1,2,4]triazolo[1,5-a]pyrimidine-5(4H)-one]",EC50,hClpP,1000 to 10000 nM
same,IC50,MV4; 11 cells,1000 to 10000 nM
"O=c1c2c(c3cccnc3n1Cc1ccccc1)CCN(CC1CCC1)C2 [Compound I-2, 6-benzyl-3-(cyclobutylmethyl)-2,3,4,6-tetrahydropyrido[3,4-c][1,8]naphthyridine-5-(1H)-one]",EC50,hClpP,10000 to 100000 nM
same,IC50,MV4; 11 cells,1000 to 10000 nM
"Cc1ccc(CN2CCc3c(c(=O)n(Cc4ccccc4)c4ncccc34)C2)cc1 [Compound I-21, 6-benzyl-3-(4-methylbenzyl)-2,3,4,6-tetrahydropyrido[3,4-c][1,8]naphthyridine-5-(1H)-one]",EC50,hClpP,1000 to 10000 nM
same,IC50,MV4; 11 cells,< 1000 nM
"O=c1c2c(c3cccnc3n1Cc1ccc3c(c1)OCCO3)CCN(Cc1cccc(Cl)c1)C2 [Compound I-97, 3-(3-chlorobenzyl)-6-((2,3-dihydro[1,4]benzodioxin-6-yl)methyl)-2,3,4,6-tetrahydropyrido[3,4-c][1,8]naphthyridine-5(1H)-one]",EC50,hClpP,1000 to 10000 nM
same,IC50,MV4; 11 cells,1000 to 10000 nM
"Cc1cccc(CN2CCc3c(c(=O)n(Cc4ccc(F)cc4)c4nccn34)C2)c1 [Compound I-115, 7-(3-methylbenzyl)-4-(4-fluorobenzyl)-6,7,8,9-tetrahydroimidazo[1,2-a]pyrido[3,4-e]pyrimidine-5(4H)-one]",EC50,hClpP,< 1000 nM
same,IC50,MV4; 11 cells,< 1000 nM
"O=c1c2c(c3cccnc3n1Cc1ccc(Br)cc1)CCN(Cc1cccc(F)c1)C2 [Compound I-77, 3-(3-fluorobenzyl)-6-(4-bromobenzyl)-2,3,4,6-tetrahydropyrido[3,4-c][1,8]naphthyridine-5-(1H)-one]",EC50,hClpP,< 1000 nM
same,IC50,MV4; 11 cells,< 1000 nM
"O=c1c2c(n3ccnc3n1Cc1ccc(F)cc1F)CCN(Cc1cccc(F)c1)C2 [Compound I-123, 7-(3-fluorobenzyl)-4-(2,4-difluorobenzyl)-6,7,8,9-tetrahydroimidazo[1,2-a]pyrido[3,4-e]pyrimidine-5(4H)-one]",EC50,hClpP,< 1000 nM
same,IC50,MV4; 11 cells,< 1000 nM
"O=c1c2c(c3cccnc3n1Cc1cccc(F)c1)CCN(Cc1ccccc1)C2 [Compound I-46, 3-benzyl-6-(3-fluorobenzyl)-2,3,4,6-tetrahydropyrido[3,4-c][1,8]naphthyridine-5-(1H)-one]",EC50,hClpP,< 1000 nM
same,IC50,MV4; 11 cells,< 1000 nM
"O=c1c2c(n3cccc3n1Cc1ccc(Cl)cc1)CCN(Cc1cccc(Cl)c1)C2 [Compound I-169, 3-(3-chlorobenzyl)-6-(4-chlorobenzyl)-1,2,3,4-tetrahydropyrido[3,4-e]pyrrolo[1,2-a]pyrimidine-5(6H)-one]",EC50,hClpP,< 1000 nM
same,IC50,MV4; 11 cells,< 1000 nM
